Reference: US5599548A, “Skin care compositions containing fatty acid amides and retinol or retinyl ester” (priority 1995, dated 1997)
Where two headings read alike, the source gives them in different places.

How the values were obtained:
Human keratinocytes = assay: 3H-Thymidine incorporation (keratinocyte proliferation); type: cell-based; conditions: for activity at 0.25 µM / activity at 0.025 µM / activity at 0.0025 µM: Homo sapiens, Keratinocyte; for activity at 0.25 µM / mean Thymidine incorp./μg protein ± s.d: 2.5 × 10^-7 M; for activity at 0.0025 µM: 2.5 × 10^-9 M; for effect on keratinocyte proliferation, in words: concentrations as in the respective Example
Method: (§1) Human keratinocytes, isolated from neonatal foreskin by trypsin treatment were grown in Dulbecco Modification Eagle (DME) Hams F12 (1:1) medium/10% fetal calf serum in the presence of irradiated 3T3 mouse fibroblasts for establishing dividing keratinocyte colonies. Cells were grown under the above condition until their second passage and kept frozen for future use. […] On day 7, when the cells were 80-90% confluent, they were trypsinized and plated in the serum-free medium for the various experiments.
The incorporation of […] by cultured keratinocytes was used as an assay of keratinocyte proliferation. Thymidine is one of four deoxynucleosides which are the monomeric units of DNA, the universal library of genetic information in the animal kingdom. Prior to cell division of a somatic cell such as a keratinocyte, the complete genome of the cell undergoing cell division is replicated. This involves large scale DNA synthesis by the cell and enables both daughter cells to receive identical copies of the genetic material. When ^3 H-thymidine is included in the culture media of keratinocytes which are synthesizing DNA in preparation for cell division then the labelled nucleoside is incorporated into the newly synthesized DNA. The extent of incorporation of ^3 H-thymidine into a population of cells is proportional to the rate of DNA synthesis by this population of cells and therefore an indication of their cellular proliferation.
Keratinocytes (that were cultured as described above) were plated in 24 well plates at a density of 40,000 cells per well in 1 ml media. After incubation for four days or until the cells were 60-70% confluent, the media was changed. Test compounds were added (in triplicate) to the wells 24 hours after the media change, and four hours later 1μCi^3 H-Thymidine in 50 μl media was added per well. Cells were incubated for a further 24 hours. Media was removed from the cells, 10% ice cold trichloroacetic acid (TCA) added and plates were incubated on ice for 30 minutes. Cells were washed five times with 5% TCA and allowed to dissolve in 500 μl 0.1M NaOH for at least one hour (usually overnight). The preparations were neutralized with 0.1M HCl; 50 μl of the cell preparation was used to determine total protein content. Disintegrations per minute (DPM) from ^3 H labelling of DNA was determined by liquid scintillation counting of […] of the cell preparation. Thymidine incorporation results were expressed as DPM/μg protein.

[1] = test system: TGase I (keratinocyte transglutaminase level); assay: Transglutaminase (TGase I) ELISA assay (keratinocyte differentiation); type: cell-based, human; conditions: for effect on keratinocyte TG1 levels / differentiation, in words: concentrations as in the respective Example
Method: as §1
During the process of terminal differentiation in the epidermis, a 15 nm thick layer of protein, known as the cornified envelope (CE) is formed on the inner surface of the cell periphery. The CE is composed of numerous distinct proteins which have been cross-linked together by the formation of N^ε -(γ-glutamyl) lysine isodipeptide bonds catalyzed by the action of at least two different transglutaminases (TGases) expressed in the epidermis. TGase I is expressed in abundance in the differentiated layers of the epidermis, especially the granular layer, but is absent in the undifferentiated basal epidermis. Thus TGase I is a useful marker of epidermal keratinocyte differentiation with high TGase I levels indicating a more differentiated state. An ELISA based TGase I assay, using a TGase I antibody, was used to assess the state of differentiation of the cultured keratinocytes in the examples that follow.
Keratinocytes (cultured as described above) were plated in 96 well plates at a density of 3,000 cells per well in 200 μl media. After incubation for four days the media was changed to media containing test compounds (six replicates per test). The cells were cultured for a further 72 hours after which time the media was aspirated and the plates stored at -70° C. Plates were removed from the freezer, and the cells washed with PBS. 100 μl sterile water was added and the cells were freeze fractured by freezing at -70° C. then thawing. The cells were incubated for one hour at room temperature (R/T) with PBS/3% BSA (wash buffer, bovine serum albumin), then rinsed with a fresh aliquot of wash buffer. Cells were incubated with 50 μl of primary antibodies monoclonal anti-human transglutaminase (IgG) obtained from Amersham (mouse) diluted 1:300 in wash buffer for one hour, 37° C. then rinsed two times with wash buffer. Cells were then incubated with 50 μl of secondary antibody (Feb fragment, peroxidase conjugated anti-mouse IgG obtaining from Amersham) diluted 1:200 in wash buffer for one hour at 37° C., then rinsed two times with wash buffer. Cells were incubated with substrate solution (4 mg o-phenylene diamine and 3.3 μl 30% H2 O2 in 10 ml 0.1M citrate buffer pH 5.0) for five minutes, R/T, in darkness (under aluminum foil). The reaction was stopped by the addition of 50 μl 4N H2 SO4. The absorbance of samples was read at 492 nm in the plate reader. Out of the six replicates, four were treated with both antibodies, two were treated only with the secondary antibody (i.e., to determine background binding of enzyme conjugated Ab). TGase levels were determined by subtracting background from the readings from each treatment and determining mean ±s.d. for the replicates exposed to both Ab.

[2] = 24 h, Table 7A, 24 h, n = 9, read-out: mean Thymidine incorp/μg protein ± s.d
[3] = 24 h, Table 7A, 24 h, n = 9, read-out: thymidine incorporation, % control

CC1=C(/C=C/C(C)=C/C=C/C(C)=C/CO)C(C)(C)CCC1 [ROH, retinol]
activity at 0.25 µM (Human keratinocytes; 24 h, Table 1A, first RA/ROH pair, 24 h, n = 3, read-out: thymidine incorporation, % control): 106% | activity at 0.25 µM (Human keratinocytes; 24 h, Table 1A, second RA/ROH pair, 24 h, n = 3, read-out: thymidine incorporation, % control): 97% | activity at 0.25 µM (Human keratinocytes; 24 h, Table 1A, third RA/ROH pair, 24 h, n = 3, read-out: thymidine incorporation, % control): 94% | activity at 0.025 µM (Human keratinocytes; 24 h, Table 2A, RA, ROH 2.5 × 10^-8 M, linoleoyl-DEA 10^-9 M, alone or combined, 24 h, n = 9, read-out: thymidine incorporation, % control): 102% | activity at 0.025 µM (Human keratinocytes; 24 h, Table 2A, RA, ROH 2.5 × 10^-8 M, linoleoyl-DEA 10^-9 M, alone or combined, 24 h, normalized to ethanol control, n = 9, read-out: mean Thymidine incorp./μg protein ± s.d): 102 ± 15.2% | activity at 0.025 µM (Human keratinocytes; 24 h, Table 4C, RA, retinol 2.5 × 10^-8 M, palmitoyl-MEA 10^-6 M, alone or combined, n = 3, read-out: thymidine incorporation, % control): 101% | activity at 0.025 µM (Human keratinocytes; 24 h, Table 4D, RA, ROH 2.5 × 10^-8 M, linoleoyl-MEA 10^-9 M, alone or combined, 24 h, n = 3, read-out: thymidine incorporation, % control): 106% | activity at 0.025 µM (Human keratinocytes; 24 h, Table 4D, RA, ROH 2.5 × 10^-8 M, linoleoyl-MEA 10^-9 M, alone or combined, 24 h, normalized to ethanol control, n = 3, read-out: mean Thymidine incorp./μg protein ± s.d): 106 ± 27% | activity at 0.25 µM (Human keratinocytes; [2]): 102 ± 16.5% | activity at 0.25 µM (Human keratinocytes; [3]): 102% | activity at 0.025 µM (Human keratinocytes; 24 h, Table 7A, 2.5 × 10^-8 M, 24 h, n = 9, read-out: mean Thymidine incorp/μg protein ± s.d): 101 ± 15.2% | activity at 0.025 µM (Human keratinocytes; 24 h, Table 7A, 2.5 × 10^-8 M, 24 h, n = 9, read-out: thymidine incorporation, % control): 101% | activity at 0.0025 µM (Human keratinocytes; [2]): 99.5 ± 12.3% | activity at 0.0025 µM (Human keratinocytes; [3]): 100% | activity at 0.025 µM (Human keratinocytes; Table 4C, RA, retinol 2.5 × 10^-8 M, palmitoyl-MEA 10^-6 M, alone or combined, control = 1.000, n = 3, read-out: mean Thymidine incorp./μg protein ± s.d): 101 ± 8.8% | mean Thymidine incorp./μg protein ± s.d (Human keratinocytes; Table 1A, first RA/ROH pair, 24 h, n = 3): 2218 ± 73 DPM/μg protein | mean Thymidine incorp./μg protein ± s.d (Human keratinocytes; Table 1A, second RA/ROH pair, 24 h, n = 3): 2034 ± 46 DPM/μg protein | mean Thymidine incorp./μg protein ± s.d (Human keratinocytes; Table 1A, third RA/ROH pair, 24 h, n = 3): 1977 ± 19 DPM/μg protein | effect on keratinocyte proliferation, in words (Human keratinocytes): minor, non-significant stimulatory effect on keratinocyte proliferation | effect on keratinocyte proliferation, in words (Human keratinocytes; listed as Retinol): completely ineffective at increasing keratinocyte proliferation | effect on keratinocyte proliferation, in words (Human keratinocytes; listed as retinol): Neither 10^-8 M palmitoyl-MEA nor 2.5×10^-8 M retinol had an effect on keratinocyte proliferation | activity at 0.25 µM ([1]; Homo sapiens, Keratinocyte, 72 h, Table 1B, 2.5 × 10^-7 M, 72 h, n = 3, read-out: Transglutaminase level, % control): 67% | activity at 0.025 µM ([1]; Homo sapiens, Keratinocyte, 72 h, Table 1B, 2.5 × 10^-8 M, 72 h, n = 3, read-out: Transglutaminase level, % control): 86% | activity at 0.0025 µM ([1]; Homo sapiens, Keratinocyte, 72 h, Table 1B, 2.5 × 10^-9 M, 72 h, n = 3, read-out: Transglutaminase level, % control): 97% | activity at 0.25 µM ([1]; Homo sapiens, Keratinocyte, 72 h, Table 2B, RA, ROH 2.5 × 10^-7 M, linoleoyl-DEA 10^-6 M, alone or combined, 72 h, n = 9, read-out: TGase (TG1) level, % control): 59% | activity at 0.25 µM ([1]; Homo sapiens, Keratinocyte, 72 h, Table 6A, RA, ROH 2.5 × 10^-7 M, formamide 10^-7 M, alone or combined, 72 h, n = 3, read-out: TGase (TG1) level, % control): 71% | activity at 0.25 µM ([1]; Homo sapiens, Keratinocyte, 72 h, Table 6B, RA, ROH 2.5 × 10^-7 M, acetamide 10^-7 M, alone or combined, 72 h, n = 3, read-out: TGase (TG1) level, % control): 65% | activity at 0.25 µM ([1]; Homo sapiens, Keratinocyte, 72 h, Table 6C, RA, ROH 2.5 × 10^-7 M, pentanoyl-DEA 10^-7 M, alone or combined, 72 h, n = 3, read-out: TGase (TG1) level, % control): 67% | activity at 0.25 µM ([1]; Homo sapiens, Keratinocyte, Table 4A, RA, retinol 2.5 × 10^-7 M, cocoyl-DEA 10^-7 M, alone or combined, n = 3, read-out: TGase (TG1) level, % control): 82% | activity at 0.025 µM ([1]; Homo sapiens, Keratinocyte, Table 4B, RA, retinol 2.5 × 10^-8 M, cocoyl-MEA 10^-8 M, alone or combined, n = 3, read-out: TGase (TG1) level, % control): 44% | activity at 0.25 µM ([1]; Homo sapiens, Keratinocyte, Table 5A, RA, retinol 2.5 × 10^-7 M, linoleic acid 10^-6 M, alone or combined, n = 3, read-out: TGase (TG1) level, % control): 39% | activity at 0.025 µM ([1]; Homo sapiens, Keratinocyte, Table 5B, RA, retinol 2.5 × 10^-8 M, methyl linoleate 10^-8 M, alone or combined, n = 3, read-out: TGase (TG1) level, % control): 69% | mean Transglutaminase ELISA level ± s.d ([1]; Table 1B, 2.5 × 10^-7 M, 72 h, n = 3): 0.290 ± 0.043 | mean Transglutaminase ELISA level ± s.d ([1]; Table 1B, 2.5 × 10^-8 M, 72 h, n = 3): 0.371 ± 0.054 | mean Transglutaminase ELISA level ± s.d ([1]; Table 1B, 2.5 × 10^-9 M, 72 h, n = 3): 0.416 ± 0.035 | mean TGase ± s.d ([1]; Table 2B, RA, ROH 2.5 × 10^-7 M, linoleoyl-DEA 10^-6 M, alone or combined, 72 h, normalized to ethanol control, n = 9): 0.594 ± 0.542 | mean TGase ± s.d ([1]; Table 4A, RA, retinol 2.5 × 10^-7 M, cocoyl-DEA 10^-7 M, alone or combined, n = 3): 0.145 ± 0.070 | mean TGase ± s.d ([1]; Table 4B, RA, retinol 2.5 × 10^-8 M, cocoyl-MEA 10^-8 M, alone or combined, n = 3): 0.054 ± 0.013 | mean TGase ± s.d ([1]; Table 5A, RA, retinol 2.5 × 10^-7 M, linoleic acid 10^-6 M, alone or combined, n = 3): 0.042 ± 0.112 | mean TGase ± s.d ([1]; Table 5B, RA, retinol 2.5 × 10^-8 M, methyl linoleate 10^-8 M, alone or combined, n = 3): 0.199 ± 0.093 | mean TGase level ± s.d ([1]; Table 6A (Effect on Keratinocyte TGase), RA, ROH 2.5 × 10^-7 M, formamide 10^-7 M, alone or combined, 72 h, n = 3): 0.351 ± 0.046 | mean TGase level ± s.d ([1]; Table 6B (Effect on Keratinocyte TGase), RA, ROH 2.5 × 10^-7 M, acetamide 10^-7 M, alone or combined, 72 h, n = 3): 0.317 ± 0.043 | mean TGase level ± s.d ([1]; Table 6C (Effect on Keratinocyte TGase), RA, ROH 2.5 × 10^-7 M, pentanoyl-DEA 10^-7 M, alone or combined, 72 h, n = 3): 0.290 ± 0.043 | effect on keratinocyte TG1 levels / differentiation, in words ([1]; listed as Retinol): significantly less effective than retinoic acid at inhibiting keratinocyte differentiation | effect on keratinocyte TG1 levels / differentiation, in words ([1]; listed as retinol): decrease in transglutaminase level was dose dependent
